{"source": "PubChem BioAssay AID1259411", "about": "(Chemical Carcinogenesis Research Information System (CCRIS), 2018)", "test_system": "rodent carcinogenicity bioassays, tumor incidence", "assay": "CCRIS carcinogenicity studies", "summary_of_the_method": "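NCI-built, expert-reviewed records of carcinogenicity and related test outcomes (mutagenicity, tumor promotion/inhibition) compiled from published and report sources, historical span 1985-2011, not updated.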", "note": "Active and inactive are the calls of the source. No rule for the calls is given here.", "data": [{"compound": "CC(O)CN(N=O)C(N)=O", "note": "(stereo not drawn)", "values": [{"measurement": "carcinogen call", "setting": "Species: HAMSTER, Strain/Sex: SYRIAN/FEMALE, Route: GAVAGE, Dose: 0, 16 MG/ML ((0.2 ML OF A SOLUTION IN ETHYL ACETATE/CORN OIL (1:2)) 1/WK FOR 24 WK (STUDY DURATION: LIFE SPAN), Tumor Site: Type of Lesion: LIVER: HEMANGIOSARCOMA, SPLEEN: HEMANGIOSARCOMA, FORESTOMACH: SQUAMOUS CELL CARCINOMA OR PAPILLOMA, Tumor Site: Type of Lesion: LIVER: HEMANGIOSARCOMA, SPLEEN: HEMANGIOSARCOMA, FORESTOMACH: SQUAMOUS CELL CARCINOMA OR PAPILLOMA", "value": "active; positive"}, {"measurement": "carcinogen call", "setting": "Species: RAT, Strain/Sex: F344/FEMALE, Route: GAVAGE, Dose: 0, 8 MG/ML (TOTAL DOSE 0; 0.4 MMOL) IN 2 ML ETHYL ACETATE AND CORN OIL (1:2) 2/WK FOR 18 WK (STUDY DURATION: LIFETIME), Dose: 0, 8 MG/ML (TOTAL DOSE 0; 0.4 MMOL) IN 2 ML ETHYL ACETATE AND CORN OIL (1:2) 2/WK FOR 18 WK (STUDY DURATION: LIFETIME), Tumor Site: Type of Lesion: THYMUS: LYMPHOMA", "value": "active; positive"}, {"measurement": "carcinogen call", "setting": "Species: RAT, Strain/Sex: F344/FEMALE, Route: GAVAGE, Dose: 0, 8 MG/ML IN 0.2 ML ETHYL ACETATE AND CORN OIL 2/WK FOR 18 WK (STUDY DURATION: LIFESPAN), Tumor Site: Type of Lesion: THYMUS: TUMOR", "value": "active; positive"}, {"measurement": "carcinogen call", "setting": "Species: RAT, Strain/Sex: F344/FEMALE, Route: INTRAVESICULAR, Dose: 0, 3.2 MG 2/WK FOR 30 WK (STUDY DURATION: LIFETIME), Tumor Site: Type of Lesion: BLADDER: TUMOR", "value": "active; positive"}, {"measurement": "carcinogen call", "setting": "Species: RAT, Strain/Sex: F344/MALE, Route: GAVAGE, Dose: 0, 8 MG/ML (TOTAL DOSE 0; 0.4 MMOL) IN 2 ML ETHYL ACETATE AND CORN OIL (1:2) 2/WK FOR 18 WK (STUDY DURATION: LIFETIME), Dose: 0, 8 MG/ML (TOTAL DOSE 0; 0.4 MMOL) IN 2 ML ETHYL ACETATE AND CORN OIL (1:2) 2/WK FOR 18 WK (STUDY DURATION: LIFETIME), Tumor Site: Type of Lesion: THYMUS: LYMPHOMA", "value": "active; positive"}, {"measurement": "carcinogen call", "setting": "Species: RAT, Strain/Sex: F344/MALE, Route: GAVAGE, Dose: 0, 8 MG/ML IN 0.2 ML ETHYL ACETATE AND CORN OIL 2/WK FOR 18 WK (STUDY DURATION: LIFESPAN), Tumor Site: Type of Lesion: THYMUS: TUMOR", "value": "active; positive"}]}, {"compound": "ClC(Cl)(Cl)Cl", "values": [{"measurement": "carcinogen call", "setting": "Species: FISH, Strain/Sex: RAINBOW TROUT, Route: INTRAPERITONEAL, Dose: 0, 1 ML/KG AT 21 D INTERVALS FOR A TOTAL OF 7 DOSES (STUDY DURATION: 6 MO)", "value": "inactive; negative"}, {"measurement": "carcinogen call", "setting": "Species: MOUSE, Route: ORAL, GAVAGE, Tumor Site: Type of Lesion: LIVER: HEPATOMA, HEPATOCELLULAR CARCINOMA", "value": "active; positive"}, {"measurement": "carcinogen call", "setting": "Species: Mouse, Strain/Sex: BDF1/Female (50/group), Route: Inhalation, Dose: 0, 5, 25, 125 ppm (v/v) 6 hr/d, 5 d/wk for 104 wk, Dose: 0, 5, 25, 125 ppm (v/v) 6 hr/d, 5 d/wk for 104 wk, Tumor Site: Type of Lesion: Liver: hepatocellular carcinoma (2/50; 1/49; 33/50; 48/49), hepatocellular adenoma (2/50; 8/49; 17/50; 5/49). Adrenal Gl, Tumor Site: Type of Lesion: Liver: hepatocellular carcinoma (2/50; 1/49; 33/50; 48/49), hepatocellular adenoma (2/50; 8/49; 17/50; 5/49). Adrenal Gl", "value": "active; positive"}, {"measurement": "carcinogen call", "setting": "Species: Mouse, Strain/Sex: BDF1/Male (50/group), Route: Inhalation, Dose: 0, 5, 25, 125 ppm (v/v) 6 hr/d, 5 d/wk for 104 wk, Dose: 0, 5, 25, 125 ppm (v/v) 6 hr/d, 5 d/wk for 104 wk, Tumor Site: Type of Lesion: Liver: hepatocellular carcinoma (17/50; 12/50; 44/50; 47/50), hepatocellular adenoma (9/50; 10/50; 27/50; 16/50). Adrena, Tumor Site: Type of Lesion: Liver: hepatocellular carcinoma (17/50; 12/50; 44/50; 47/50), hepatocellular adenoma (9/50; 10/50; 27/50; 16/50). Adrena", "value": "active; positive (dose related metastasis of liver tumors to lung)"}, {"measurement": "carcinogen call", "setting": "Species: RAT, Route: SUBCUTANEOUS, Tumor Site: Type of Lesion: LIVER: HEPATOCELLULAR CARCINOMA", "value": "active; positive"}, {"measurement": "carcinogen call", "setting": "Species: Rat, Strain/Sex: F344/Female (50/group), Route: Inhalation, Dose: 0, 5, 25, 125 ppm (v/v) 6 hr/d, 5 d/wk for 104 wk, Dose: 0, 5, 25, 125 ppm (v/v) 6 hr/d, 5 d/wk for 104 wk, Tumor Site: Type of Lesion: Liver: hepatocellular carcinoma (0/50; 0/50; 3/50; 15/50), hepatocellular adenoma (0/50; 0/50; 40/50), Tumor Site: Type of Lesion: Liver: hepatocellular carcinoma (0/50; 0/50; 3/50; 15/50), hepatocellular adenoma (0/50; 0/50; 40/50)", "value": "active; positive"}, {"measurement": "carcinogen call", "setting": "Species: Rat, Strain/Sex: F344/Male (50/group), Route: Inhalation, Dose: 0, 5, 25, 125 ppm (v/v) 6 hr/d, 5 d/wk for 104 wk, Dose: 0, 5, 25, 125 ppm (v/v) 6 hr/d, 5 d/wk for 104 wk, Tumor Site: Type of Lesion: Liver: hepatocellular carcinoma (1/50; 0/50; 32/50), hepatocellular adenoma (0/50; 1/50; 21/50), Tumor Site: Type of Lesion: Liver: hepatocellular carcinoma (1/50; 0/50; 32/50), hepatocellular adenoma (0/50; 1/50; 21/50)", "value": "active; positive"}]}, {"compound": "OC[P+](CO)(CO)CO", "values": [{"measurement": "carcinogen call", "setting": "Species: MOUSE, Strain/Sex: B6C3F1/FEMALE, Route: GAVAGE, Dose: 0, 5, 10 MG/KG IN DISTILLED WATER 5 D/WK FOR 103 WK, Dose: 0, 5, 10 MG/KG IN DISTILLED WATER 5 D/WK FOR 103 WK", "value": "inactive; negative"}, {"measurement": "carcinogen call", "setting": "Species: MOUSE, Strain/Sex: B6C3F1/FEMALE, Route: GAVAGE, Dose: 0, 15, 30 MG/KG IN DISTILLED WATER 5 D/WK FOR 103 WK, Dose: 0, 15, 30 MG/KG IN DISTILLED WATER 5 D/WK FOR 103 WK", "value": "inactive; negative"}, {"measurement": "carcinogen call", "setting": "Species: MOUSE, Strain/Sex: B6C3F1/MALE, Route: GAVAGE, Dose: 0, 5, 10 MG/KG IN DISTILLED WATER 5 D/WK FOR 103 WK, Dose: 0, 5, 10 MG/KG IN DISTILLED WATER 5 D/WK FOR 103 WK", "value": "inactive; negative"}, {"measurement": "carcinogen call", "setting": "Species: MOUSE, Strain/Sex: B6C3F1/MALE, Route: GAVAGE, Dose: 0, 7.5, 15 MG/KG IN DISTILLED WATER 5 D/WK FOR 103 WK, Dose: 0, 7.5, 15 MG/KG IN DISTILLED WATER 5 D/WK FOR 103 WK", "value": "inactive; negative"}, {"measurement": "carcinogen call", "setting": "Species: RAT, Strain/Sex: F344/FEMALE, Route: GAVAGE, Dose: 0, 3.75, 7.5 MG/KG IN DISTILLED WATER 5 D/WK FOR 103 WK, Dose: 0, 3.75, 7.5 MG/KG IN DISTILLED WATER 5 D/WK FOR 103 WK", "value": "inactive; negative"}, {"measurement": "carcinogen call", "setting": "Species: RAT, Strain/Sex: F344/FEMALE, Route: GAVAGE, Dose: 0, 5, 10 MG/KG IN DISTILLED WATER 5 D/WK FOR 104 WK, Dose: 0, 5, 10 MG/KG IN DISTILLED WATER 5 D/WK FOR 104 WK", "value": "inactive; negative"}, {"measurement": "carcinogen call", "setting": "Species: RAT, Strain/Sex: F344/MALE, Route: GAVAGE, Dose: 0, 3.75, 7.5 MG/KG IN DISTILLED WATER 5 D/WK FOR 103 WK, Dose: 0, 3.75, 7.5 MG/KG IN DISTILLED WATER 5 D/WK FOR 103 WK", "value": "inactive; negative"}, {"measurement": "carcinogen call", "setting": "Species: RAT, Strain/Sex: F344/MALE, Route: GAVAGE, Dose: 0, 5, 10 MG/KG IN DISTILLED WATER 5 D/WK FOR 104 WK, Dose: 0, 5, 10 MG/KG IN DISTILLED WATER 5 D/WK FOR 104 WK", "value": "inactive; negative"}]}, {"compound": "C[C@]12C=CC(=O)C=C1CC[C@@H]1[C@@H]2C(=O)C[C@@]2(C)[C@H]1CC[C@]2(O)C(=O)CO", "values": [{"measurement": "carcinogen call", "setting": "Species: MOUSE, Strain/Sex: ICR/FEMALE, Route: ORAL, Dose: 0, 0.25, 0.5, 1, 5 MG/KG/D FOR 18 MO (STUDY DURATION: 18 MO), Dose: 0, 0.25, 0.5, 1, 5 MG/KG/D FOR 18 MO (STUDY DURATION: 18 MO)", "value": "inactive; negative"}, {"measurement": "carcinogen call", "setting": "Species: MOUSE, Strain/Sex: ICR/MALE, Route: ORAL, Dose: 0, 0.25, 0.5, 1, 5 MG/KG/D FOR 18 MO (STUDY DURATION: 18 MO), Dose: 0, 0.25, 0.5, 1, 5 MG/KG/D FOR 18 MO (STUDY DURATION: 18 MO)", "value": "inactive; negative"}]}]}
